The values below come from US7998974B2, “Fused heterocyclic compounds and their use as sirtuin modulators” (Sirtris Pharmaceuticals, Inc., priority 2005, dated 2011).

In general, pIC50 refers to −log10 of the IC50, conventionally taken in molar units. The low end stands for a large IC50, the high end for a small IC50.

pEC50, pIC50: −log10 of the molar value.

One experiment deals with T1, SIRT1 (Homo sapiens, UniProt Q96EB6).
T1 sequence (Q96EB6 1-747): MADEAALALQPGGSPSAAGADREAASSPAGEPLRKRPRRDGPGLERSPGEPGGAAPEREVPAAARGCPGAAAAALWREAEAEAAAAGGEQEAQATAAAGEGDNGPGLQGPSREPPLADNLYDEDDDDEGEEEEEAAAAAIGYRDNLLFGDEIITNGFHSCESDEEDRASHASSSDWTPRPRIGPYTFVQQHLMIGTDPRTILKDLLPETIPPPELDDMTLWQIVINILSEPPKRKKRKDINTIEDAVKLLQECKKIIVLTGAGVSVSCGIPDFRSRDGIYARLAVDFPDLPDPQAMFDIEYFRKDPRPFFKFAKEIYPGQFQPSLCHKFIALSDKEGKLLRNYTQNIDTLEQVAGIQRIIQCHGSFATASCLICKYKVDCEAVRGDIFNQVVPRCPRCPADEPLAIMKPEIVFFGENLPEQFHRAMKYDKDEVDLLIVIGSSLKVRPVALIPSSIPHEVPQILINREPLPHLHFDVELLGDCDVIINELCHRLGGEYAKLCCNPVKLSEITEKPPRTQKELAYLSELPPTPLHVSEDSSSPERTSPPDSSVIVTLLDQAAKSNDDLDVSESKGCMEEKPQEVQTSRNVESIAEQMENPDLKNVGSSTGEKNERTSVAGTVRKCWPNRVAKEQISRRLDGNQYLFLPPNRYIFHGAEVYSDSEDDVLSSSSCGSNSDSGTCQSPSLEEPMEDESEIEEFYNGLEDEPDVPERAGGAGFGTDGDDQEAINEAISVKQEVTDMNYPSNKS
Description: Fluorescence polarization or mass spectrometry based assay to identify modulators of SIRT1 activity.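 Note: deacetylation of a fluorophore-tagged p53-derived acetyl peptide by SIRT1, detected as fluorescence polarization after trypsin cleavage and streptavidin binding, compounds tested at 11 doses from 0.7 to 100 µM.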 Conditions: activation of SIRT1 (Table 3); read-out: ED50 (the source's name). The experiment is classed as biochemical. In general terms: In fluorescence polarisation assays a small probe gives low polarisation when free and higher when bound to something large.
With `Cc1[nH]c2ccccc2c1/C=C(\C#N)c1nc2ccccc2[nH]1` [Compound 1], the pEC50 was 3.82 to 4.00. Take `O=C(Nc1cccc(-c2nc3ccccc3[nH]2)c1)c1cccnc1` [Compound 3]: the pEC50 was under 3.82. Same read-out and setting: next, `Nc1ccc(C(=O)Nc2ccc3[nH]c(-c4ccccc4)nc3c2)cc1` [Compound 4]: 4.00 to 4.29.

As for `Cc1csc(NC(=O)c2ccccc2C(=O)O)c1-c1nc2ccccc2s1` [Compound 6], the pEC50 was over 4.30. Still for that read-out and setting: to `COc1ccccc1NC(=O)Nc1nn(C)c2cccc(OC)c12` [Compound 7] belongs 3.82 to 4.00. Same read-out and setting: to `COc1cccc2c1c(NC(=O)c1cc3ccccc3s1)nn2C` [Compound 8] belongs under 3.82; to `N#C/C(=C\c1ccc(-c2ccc(C(=O)O)cc2)o1)c1nc2ccccc2[nH]1` [Compound 9], over 4.30; to `COc1ccc2nc3s/c(=C\c4ccc(-c5ccc(Cl)c(C(=O)O)c5)o4)c(=O)n3c2c1` [Compound 10], over 4.30. The same measure, in the same setting: next, `COc1cc(C(=O)Nc2cccc(-c3nc4ccccc4[nH]3)c2)cc(OC)c1OC` [Compound 11]: 4.00 to 4.29. Take `N#CC(C(=O)c1cc2ccccc2o1)c1nc2ccccc2s1` (stereo not drawn) [Compound 12]: the pEC50 is 4.00 to 4.29. As for `N#Cc1cc(Oc2nc3ccccc3s2)c(N2CCOCC2)cc1C#N` [Compound 13], the pEC50 is 3.82 to 4.00. Turning to `Nc1ccc2nc(-c3ccc(-c4nc5ccc(N)cc5[nH]4)cc3)[nH]c2c1` [Compound 15], the pEC50 is 4.00 to 4.29. Same read-out and setting: next, `Nc1ccc2[nH]c(-c3cccc(-c4nc5cc(N)ccc5[nH]4)c3)nc2c1` [Compound 16]: 4.00 to 4.29; `Cc1[nH]c2ccccc2c1/C=C/c1nc2ccccc2c(=O)[nH]1` [Compound 17]: under 3.82; `Nc1ccc2[nH]c(/C=C/c3nc4cc(N)ccc4[nH]3)nc2c1` [Compound 18]: 4.00 to 4.29. For `Cc1ccsc1/C=C(\C#N)c1nc2ccccc2[nH]1` [Compound 19], the pEC50 is 3.82 to 4.00. As to `COC(=O)c1[nH]c2cc(OC)c(OC)cc2c1NC(=O)c1cccs1` [Compound 20], the pEC50 was 3.82 to 4.00. With `O=C(Nc1c(C(=O)O)[nH]c2ccc(Br)cc12)c1ccc(F)cc1` [Compound 21], the pEC50 is 4.00 to 4.29.

Take `COC(=O)c1[nH]c2cc(OC)c(OC)cc2c1NC(=O)c1cccc(OC)c1` [Compound 22]: the pEC50 is under 3.82. Still for that read-out and setting: next, `COc1cccc(C(=O)Nc2cccc(-c3cn4ccccc4n3)c2)c1` [Compound 23]: under 3.82. On the same count and under the same terms, next, `COc1cc(/C=C(\C#N)c2nc3ccccc3[nH]2)cc(OC)c1OC` [Compound 24]: 3.82 to 4.00; `O=C(Nc1cccc(-c2nc3ccccc3[nH]2)c1)c1ccco1` [Compound 25]: 4.00 to 4.29; `Cc1cccc(-c2nc3c(C(=O)NC4CCC(N)CC4)cccn3c2NCc2ccccc2)c1` (stereo not drawn) [Compound 26]: 3.82 to 4.00. Take `CC(=O)Nc1ccc(-c2nc3c(C(=O)NC4CCC(N)CC4)cccn3c2NC2CCCCC2)cc1` (stereo not drawn) [Compound 27]: the pEC50 was 4.00 to 4.29. Regarding `CCCCNc1c(-c2ccc(OC)c([N+](=O)[O-])c2)nc2c(C(=O)NC(CC(=O)O)C3CCCCC3)cccn12` (stereo not drawn) [Compound 28], the pEC50 is 3.82 to 4.00. Turning to `COc1ccc(-c2nc3c(C(=O)NC(CC(=O)O)C4CCCCC4)cccn3c2NCc2ccccc2)cc1[N+](=O)[O-]` (stereo not drawn) [Compound 31], the pEC50 was under 3.82.

As for `CCCCNc1c(-c2ccc(OC)c([N+](=O)[O-])c2)nc2c(C(=O)NCCCN)cccn12` [Compound 33], the pEC50 was 3.82 to 4.00.

`COc1ccc(-c2nc3c(C(=O)NCCCN)cccn3c2NCc2ccccc2)cc1[N+](=O)[O-]` [Compound 34]: the pEC50 is 3.82 to 4.00. Turning to `CC(=O)Nc1ccc(-c2nc3c(C(=O)NCc4cccc(CN)c4)cccn3c2NCc2ccccc2)cc1` [Compound 35], the pEC50 is 4.00 to 4.29. Same read-out and setting: to `CC(=O)Nc1ccc(-c2nc3c(C(=O)NC(CC(=O)O)C4CCCCC4)cccn3c2NC(C)(C)C)cc1` (stereo not drawn) [Compound 36] belongs 3.82 to 4.00; to `O=C(O)CC(NC(=O)c1cccn2c(NCc3ccccc3)c(-c3ccc4ccccc4c3)nc12)C1CCCCC1` (stereo not drawn) [Compound 38], under 3.82; to `COc1ccc(-c2nc3cc(C(=O)NC(CC(=O)O)c4ccc(C)cc4)ccn3c2NC2CCCCC2)cc1OC` (stereo not drawn) [Compound 39], 3.82 to 4.00. As to `COc1ccc(-c2nc3cc(C(=O)NCc4cccc(CN)c4)ccn3c2NC2CCCCC2)cc1[N+](=O)[O-]` [Compound 40], the pEC50 is 3.82 to 4.00. Consider `CC(=O)Nc1ccc(-c2nc3c(C(=O)NC(C)C(=O)NCCCN4CCCC4=O)cccn3c2NCc2ccccc2)cc1` (stereo not drawn) [Compound 41], for which the pEC50 is 3.82 to 4.00. The same measure, in the same setting: next, `N#CCCNC(=O)CNC(=O)c1cccn2c(NCC3CCCO3)c(-c3ccc(Cl)cc3)nc12` (stereo not drawn) [Compound 42]: 4.00 to 4.29; `COc1ccc(-c2nc3c(C(=O)NC(C)C(=O)NCCC#N)cccn3c2NCC2CCCO2)cc1` (stereo not drawn) [Compound 44]: 3.82 to 4.00; `COc1cccc(-c2nc3c(C(=O)NC(C)C(=O)NCCC#N)cccn3c2NC2CCCCC2)c1` (stereo not drawn) [Compound 46]: 4.00 to 4.29. Turning to `CC(=O)Nc1ccc(-c2nc3c(C(=O)NCC(=O)NCCC#N)cccn3c2NCc2ccccc2)cc1` [Compound 47], the pEC50 was 4.00 to 4.29. On the same count and under the same terms, to `Cc1nn(C)c(Cl)c1-c1nc2c(C(=O)NC(C)C(=O)NCCC#N)cccn2c1NCc1ccccc1` (stereo not drawn) [Compound 48] belongs 3.82 to 4.00; to `COCCNC(=O)c1cccn2c(NCc3ccccc3)c(-c3ccc(NC(=O)N4CCOCC4)cc3)nc12` [Compound 49], 4.00 to 4.29; to `COCCNC(=O)c1cccn2c(NCc3ccccc3)c(-c3ccc(NC(=O)c4ccco4)cc3)nc12` [Compound 50], under 3.82. As for `COCCNC(=O)c1cccn2c(NCc3ccccc3)c(-c3ccc(NC(=O)C4CC4)cc3)nc12` [Compound 51], the pEC50 was 4.00 to 4.29. With `CC(=O)NCCNC(=O)c1cccn2c(NCc3ccccc3)c(-c3ccc(NC(=O)c4ccco4)cc3)nc12` [Compound 52], the pEC50 was 3.82 to 4.00. In the case of `O=C(NCCN1CCNC1=O)c1cccn2c(NCc3ccccc3)c(-c3ccc(NC(=O)N4CCOCC4)cc3)nc12` [Compound 53], the pEC50 is 3.82 to 4.00. On to `O=C(Nc1ccc(-c2nc3c(C(=O)NCCN4CCNC4=O)cccn3c2NCc2ccccc2)cc1)c1ccco1` [Compound 54], for which the pEC50 was under 3.82. Consider `Cc1cc(C(=O)Nc2ccc(-c3nc4c(C(=O)NCCN5CCNC5=O)cccn4c3NCc3ccccc3)cc2)no1` [Compound 55], for which the pEC50 is under 3.82.

For `CCCCNc1c(-c2ccc(NC(=O)CC(C)C)cc2)nc2c(C(=O)NCCN3CCNC3=O)cccn12` [Compound 56], the pEC50 is under 3.82. The same measure, in the same setting: next, `CC(C)CC(=O)Nc1ccc(-c2nc3c(C(=O)NCCN4CCNC4=O)cccn3c2NC(C)(C)C)cc1` [Compound 57]: under 3.82; `O=C(NCCCN1CCCC1=O)c1cccn2c(NC3CCCCC3)c(-c3ccc(NC(=O)N4CCOCC4)cc3)nc12` [Compound 58]: over 4.30; `O=C(Nc1ccc(-c2nc3c(C(=O)NCCCN4CCCC4=O)cccn3c2NC2CCCCC2)cc1)c1ccco1` [Compound 59]: 3.82 to 4.00.

In the case of `O=C(NCCCN1CCCC1=O)c1cccn2c(NC3CCCCC3)c(-c3ccc(NC(=O)C4CC4)cc3)nc12` [Compound 60], the pEC50 is 4.00 to 4.29. With `CCCCNc1c(-c2ccc(NC(=O)c3ccc(Cl)nc3)cc2)nc2c(C(=O)NCCCN3CCCC3=O)cccn12` [Compound 61], the pEC50 was under 3.82. For `COc1ccc2c(c1)C(=O)C(c1nc3ccccc3s1)C2=O` (stereo not drawn) [Compound 62], the pEC50 was over 4.30. On to `CN(C)/C=C(\C#N)c1nc2ccccc2[nH]1` [Compound 64], for which the pEC50 is 4.00 to 4.29.

With `O=C(O)CCC(=O)Nc1cccc(-c2nc3cc4ccccc4cc3[nH]2)c1` [Compound 65], the pEC50 is under 3.82. Turning to `Cc1nc2cc3nc4c5cccc6cccc(c(=O)n4c3cc2[nH]1)c65` [Compound 66], the pEC50 was 3.82 to 4.00.

Staying with this experiment, now noted: inhibition of SIRT1 (Table 4).
Consider `COC(=O)CC(=O)Nc1ccccc1-c1nc2ccc(C(=O)NCc3ccc4c(c3)OCO4)cn2c1NC1CCCCC1` [Compound 84], for which the negative logarithm of the IC50 (pIC50) is over 4.30.
